{"source": "patent US20220296535A1", "about": "“Antibacterial Dosage Regime Using Cannabinoids” (Botanix Pharmaceuticals Limited, priority 2019, published 2022)", "key": {"P. acnes ATCC 6919": {"test_system": "P. acnes ATCC 6919", "experiment": "Anaerobic MIC micro-broth dilution", "assay_type": "cell-based, Cutibacterium acnes (formerly Propionibacterium acnes)", "conditions": "P. acnes ATCC 6919, anaerobic chamber, BHI, 48 h"}, "[1]": {"test_system": "132 strains of Staphylococcus aureus (106 MRSA and 26 MSSA strains)", "experiment": "MIC50/MIC90 micro-broth dilution, all strains"}, "[2]": {"test_system": "S. aureus MRSA (106 strains)", "experiment": "MIC50/MIC90 micro-broth dilution, MRSA strains", "assay_type": "cell-based, Staphylococcus aureus", "conditions": "for Staphylococcus aureus MRSA MIC distribution, number of strains: Table 19"}, "[3]": {"test_system": "A. acidipropionici ATCC 25562", "experiment": "Anaerobic MIC micro-broth dilution", "assay_type": "cell-based, Acidipropionibacterium acidipropionici", "conditions": "A. acidipropionici ATCC 25562, anaerobic chamber, BHI, 48 h"}, "[4]": {"test_system": "Staphylococcus aureus ATCC 43300", "experiment": "Broth MIC (Example 1)", "assay_type": "cell-based", "conditions": "Staphylococcus aureus", "procedure": "The collaborator supplied sample as dry material. A stock solution at 10 mg/mL in neat DMSO (11.2 mg in 1.12 mL of DMSO) was prepared. The highest concentration tested in the assay was 128 μg/mL and 2% DMSO as a final concentration using 1/20 dilution to achieve these concentrations."}, "S. aureus ATCC 43300": {"test_system": "S. aureus ATCC 43300", "experiment": "Anaerobic MIC micro-broth dilution", "assay_type": "cell-based, Staphylococcus aureus", "conditions": "S. aureus ATCC 43300, anaerobic chamber, BHI, 48 h"}, "[5]": {"experiment": "Protein binding inferred from loss of activity in 50% human serum", "assay_type": "in vitro ADME", "conditions": "assuming 3% free responsible for activity", "procedure": "The compounds were serially diluted in mixture of 50% of human serum (Sigma; Cat. No. H3667-100ML) along with 50% Cation-adjusted Mueller Hinton Broth (CaMHB; BD, Cat. No. 212322) two-fold across the wells of polystyrene (PS) 96-well plates (Corning; Cat. No. 3370), plated in duplicate. All plates had flat bottom wells and were covered with low-evaporation lids.\nAll control antibiotics gave inhibitory values within the expected ranges."}, "[6]": {"test_system": "Staphylococcus aureus ATCC 43300 MRSA", "experiment": "Antibacterial time kill assay", "assay_type": "cell-based", "conditions": "for MIC: Staphylococcus aureus", "procedure": "The time-kill method is based on CLSI guideline M26-A (NCCLS, 1999).\nThe collaborator supplied sample as dry material. A stock solution was prepared at 10 mg/mL in neat DMSO (11.2 mg in 1.12 mL of DMSO). The highest concentration tested in the assay was 64 μg/mL and 2% DMSO as a final concentration using 1/20 dilution to achieve these concentrations.\nTime kill plates: CBD was plate across all the rows and serially diluted in Cation-adjusted Mueller Hinton Broth (CaMHB; BD, Cat. No. 212322) two-fold across the wells of polystyrene (PS) 96-well plates (Corning; Cat. No. 3370), plated in duplicate. Each row were taken as a time point, where row A, 0 h; row B, 1 h; row C, 2 h; row D, 3 h; row E, 4 h; row F, 6 h and row G, 24 h.\nAlso, control plates were made. CBD and standard antibiotics were serially diluted in Cation-adjusted Mueller Hinton Broth (CaMHB; BD, Cat. No. 212322) two-fold across the wells of polystyrene (PS) 96-well plates (Corning; Cat. No. 3370), plated in duplicate.\nThe tested bacteria was Staphylococcus aureus ATCC 43300 MRSA (ID GP_020:02).\nCharcoal plate PS 96-well plates: 50 μL of sterile activated charcoal suspension (25 mg/ml) were added into row A. 90 μL of 0.9% sterile saline were added to subsequent rows.\nBacteria (Table 2.6) was cultured in CaMHB at 37° C. overnight, then diluted 40-fold and incubated at 37° C. for a further 2-3 h. The resultant mid-log phase cultures were diluted in CaMHB and added to each well of the control and time kill 96-well plates to give a final cell density of 5×10^5 CFU/mL, and a final compound concentration range of 0.03-64 μg/mL. The plates were covered and incubated at 37° C. for 24 h.\nAt selected time-points (0, 1, 2, 3, 4, 6 and 24 h), 50 μL of culture per-well was transferred from the time kill plate into the first row of charcoal plate (containing the charcoal suspension) to neutralise the compound. After mixing well, 10 μL were transferred from row A to row B to give a 1:10 dilution, this step was repeated until 1:10'000 (row E). […]\nMICs and the time kill results were determined visually at 24 hr incubation. […]"}, "C. granulosum ATCC 25564": {"test_system": "C. granulosum ATCC 25564", "experiment": "Anaerobic MIC micro-broth dilution", "assay_type": "cell-based, Cutibacterium granulosum", "conditions": "C. granulosum ATCC 25564, anaerobic chamber, BHI, 48 h"}, "[7]": {"conditions": "listed as Cannabidiol (Batch 2)"}}, "note": "Where two headings read alike, the source gives them in different places."}
{"smiles": "C=C(C)C1CCC(C)=CC1c1c(O)cc(CCCCC)cc1O", "note": "(stereo not shown) [Cannabidiol, 2-[3-methyl-6-(1-methylethenyl)-2-cyclohexen-1-yl]-5-pentyl-1,3-benzenediol]", "values": [{"measurement": "MIC", "setting": "P. acnes ATCC 6919; [7]", "value": "2/1"}, {"measurement": "MIC", "setting": "P. acnes ATCC 6919; listed as Cannabidiol (CBD)", "value": "active"}, {"measurement": "Staphylococcus aureus spp. MIC distribution, number of strains", "setting": "[1]; MIC 0.015 μg/mL", "value": 0}, {"measurement": "Staphylococcus aureus spp. MIC distribution, number of strains", "setting": "[1]; MIC 0.03 μg/mL", "value": 0}, {"measurement": "Staphylococcus aureus spp. MIC distribution, number of strains", "setting": "[1]; MIC 0.06 μg/mL", "value": 0}, {"measurement": "Staphylococcus aureus spp. MIC distribution, number of strains", "setting": "[1]; MIC 0.5 μg/mL", "value": 0}, {"measurement": "Staphylococcus aureus spp. MIC distribution, number of strains", "setting": "[1]; MIC 1 μg/mL", "value": 6}, {"measurement": "Staphylococcus aureus spp. MIC distribution, number of strains", "setting": "[1]; MIC 2 μg/mL", "value": 106}, {"measurement": "Staphylococcus aureus spp. MIC distribution, number of strains", "setting": "[1]; MIC 4 μg/mL", "value": 18}, {"measurement": "Staphylococcus aureus spp. MIC distribution, number of strains", "setting": "[1]; MIC 8 μg/mL", "value": 1}, {"measurement": "Staphylococcus aureus spp. MIC distribution, number of strains", "setting": "[1]; MIC 32 μg/mL", "value": 0}, {"measurement": "MIC range", "setting": "[1]; S. aureus spp. ALL", "value": "0.25 to 8", "unit": "µg/mL"}, {"measurement": "MIC50", "setting": "[1]; Staphylococcus aureus", "value": 2, "unit": "µg/mL"}, {"measurement": "MIC90", "setting": "[1]; Staphylococcus aureus", "value": 4, "unit": "µg/mL"}, {"measurement": "MIC", "setting": "[1]; Staphylococcus aureus, MRSA|MSSA, read-out: MIC across the 132 strains tested", "value": "2 to 4", "unit": "µg/mL"}, {"measurement": "MIC50", "setting": "[2]; Staphylococcus aureus, S. aureus MRSA, read-out: MIC 50", "value": 2, "unit": "µg/mL"}, {"measurement": "MIC90", "setting": "[2]; Staphylococcus aureus, S. aureus MRSA, read-out: MIC 90", "value": 4, "unit": "µg/mL"}, {"measurement": "Staphylococcus aureus MRSA MIC distribution, number of strains", "setting": "[2]; MIC 0.015", "value": 0}, {"measurement": "Staphylococcus aureus MRSA MIC distribution, number of strains", "setting": "[2]; MIC 0.03", "value": 0}, {"measurement": "Staphylococcus aureus MRSA MIC distribution, number of strains", "setting": "[2]; MIC 0.06", "value": 0}, {"measurement": "Staphylococcus aureus MRSA MIC distribution, number of strains", "setting": "[2]; MIC 0.5", "value": 0}, {"measurement": "Staphylococcus aureus MRSA MIC distribution, number of strains", "setting": "[2]; MIC 1", "value": 4}, {"measurement": "Staphylococcus aureus MRSA MIC distribution, number of strains", "setting": "[2]; MIC 2", "value": 82}, {"measurement": "Staphylococcus aureus MRSA MIC distribution, number of strains", "setting": "[2]; MIC 4", "value": 18}, {"measurement": "Staphylococcus aureus MRSA MIC distribution, number of strains", "setting": "[2]; MIC 8", "value": 1}, {"measurement": "Staphylococcus aureus MRSA MIC distribution, number of strains", "setting": "[2]; MIC 16", "value": 0}, {"measurement": "Staphylococcus aureus MRSA MIC distribution, number of strains", "setting": "[2]; MIC 32", "value": 0}, {"measurement": "MIC", "setting": "[3]", "value": "active"}, {"measurement": "MIC", "setting": "[3]; Acidipropionibacterium acidipropionici, ATCC25562, read-out: MIC", "value": 0.5, "unit": "µg/mL"}, {"measurement": "MIC", "setting": "[4]; ATCC43300, CAMHB, read-out: Broth MIC", "value": 1, "unit": "µg/mL"}, {"measurement": "MIC", "setting": "[4]; ATCC43300, TSB + 5% Glucose, read-out: Broth MIC", "value": 0.5, "unit": "µg/mL"}, {"measurement": "MIC", "setting": "[4]; ATCC 43300 / MRSA, same strain of MRSA, read-out: standard vegetative cell MIC", "value": "0.5 to 1", "unit": "µg/mL"}, {"measurement": "MIC", "setting": "S. aureus ATCC 43300; [7]", "value": "2/1"}, {"measurement": "MIC", "setting": "S. aureus ATCC 43300; listed as Cannabidiol (CBD)", "value": "active"}, {"measurement": "fraction unbound", "setting": "[5]", "value": "< 0.03"}, {"measurement": "MIC", "setting": "[6]; CaMHB, 24 hr, read-out: CBD control MIC of the day", "value": 2, "unit": "µg/mL"}, {"measurement": "MIC", "setting": "[6]; read-out: previous MIC data", "value": "1 to 2", "unit": "µg/mL"}, {"measurement": "treatment time after which bactericidal", "setting": "[6]; concentrations over or equal to the MIC value", "value": 3, "unit": "h"}, {"measurement": "MIC", "setting": "C. granulosum ATCC 25564; [7]", "value": "4/2"}, {"measurement": "MIC", "setting": "C. granulosum ATCC 25564; listed as Cannabidiol (CBD)", "value": "active"}]}
